In assay [1] the target is human EGFR (native sequence) (Homo sapiens, UniProt P00533). The assay is described as follows: Kinase inhibitory activity against human EGFR (native sequence). Type of assay: biochemical. Particulars: 10 μM ATP, read-out: IC50 for kinase inhibition, EGFR. An outline of the steps:
(§1)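 Singlicate 10 pt curves; top conc. 3 μM; ATP 10 μM.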

In assay [2] the test system is BaF3 cells expressing wildtype EGFR. The assay is described as follows: Antiproliferative activity (MTT) against control BaF3 cells expressing wildtype EGFR. The assay is classed as cell-based. The note with it: Mus musculus. In a few lines: (§2)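 MTT read-out; BaF3 lines carrying EGFR mutations vs wildtype-EGFR BaF3 control.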
The target of the next assay is EGFR L858R (Homo sapiens, UniProt P00533, L858R). The assay is described as follows: Kinase inhibitory activity against EGFR bearing the L858R mutation. Particulars: 10 μM ATP, read-out: IC50 for kinase inhibition, EGFR L858R. Type of assay: biochemical. In a few lines: as §1
A further assay addresses EGFR L858R/T790M (Homo sapiens, UniProt P00533, L858R/T790M). The assay is described as follows: Kinase inhibitory activity against EGFR bearing the L858R/T790M double mutation. The assay is classed as biochemical. Particulars: 10 μM ATP, read-out: IC50 for kinase inhibition, EGFR L858R T790M. In a few lines: as §1
For assay [3], the target named is T1, BaF3 cells expressing the target EGFR mutations (Homo sapiens, UniProt P00533, T790M, cells depend on it, form not given).
T1 construct: IC50, BAF3 EGFR DEL T790M PURO POOL; other: BAF3 EGFR DEL T790M PURO POOL cells, MTT; other: BAF3 EGFR DEL T790M PURO POOL cells; MTT
The assay is described as follows: Antiproliferative activity (MTT) against BaF3 cells expressing the target EGFR mutations. Type of assay: cell-based. Particulars: BAF3 EGFR DEL T790M PURO POOL cells, read-out: IC50, BAF3 EGFR DEL T790M PURO POOL. In a few lines:
as §2

In assay [4] the target is T2, BaF3 cells expressing the target EGFR mutations (Homo sapiens, UniProt P00533, T790M/L858R, cells depend on it).
T2 construct: IC50, BAF3 EGFR L858R-T790M PURO POOL; other: BAF3 EGFR L858R-T790M PURO POOL cells, MTT; IC50, BAF3 EGFR L858R-T790M PURO POOL; other: BAF3 EGFR L858R-T790M PURO POOL cells; MTT
Described as above. Type of assay: cell-based. Particulars: BAF3 EGFR L858R-T790M PURO POOL cells, read-out: IC50, BAF3 EGFR L858R-T790M PURO POOL. In a few lines:
as §2

The mark [5] stands for this setting: 10 pt curves, 3 μM top concentration.
Setting [6] is: EGFR L858R/T790M double mutation.

Like-named read-outs stand apart in the source and are kept apart here.

Chain of EGFR L858R (P00533 25-1210 L858R): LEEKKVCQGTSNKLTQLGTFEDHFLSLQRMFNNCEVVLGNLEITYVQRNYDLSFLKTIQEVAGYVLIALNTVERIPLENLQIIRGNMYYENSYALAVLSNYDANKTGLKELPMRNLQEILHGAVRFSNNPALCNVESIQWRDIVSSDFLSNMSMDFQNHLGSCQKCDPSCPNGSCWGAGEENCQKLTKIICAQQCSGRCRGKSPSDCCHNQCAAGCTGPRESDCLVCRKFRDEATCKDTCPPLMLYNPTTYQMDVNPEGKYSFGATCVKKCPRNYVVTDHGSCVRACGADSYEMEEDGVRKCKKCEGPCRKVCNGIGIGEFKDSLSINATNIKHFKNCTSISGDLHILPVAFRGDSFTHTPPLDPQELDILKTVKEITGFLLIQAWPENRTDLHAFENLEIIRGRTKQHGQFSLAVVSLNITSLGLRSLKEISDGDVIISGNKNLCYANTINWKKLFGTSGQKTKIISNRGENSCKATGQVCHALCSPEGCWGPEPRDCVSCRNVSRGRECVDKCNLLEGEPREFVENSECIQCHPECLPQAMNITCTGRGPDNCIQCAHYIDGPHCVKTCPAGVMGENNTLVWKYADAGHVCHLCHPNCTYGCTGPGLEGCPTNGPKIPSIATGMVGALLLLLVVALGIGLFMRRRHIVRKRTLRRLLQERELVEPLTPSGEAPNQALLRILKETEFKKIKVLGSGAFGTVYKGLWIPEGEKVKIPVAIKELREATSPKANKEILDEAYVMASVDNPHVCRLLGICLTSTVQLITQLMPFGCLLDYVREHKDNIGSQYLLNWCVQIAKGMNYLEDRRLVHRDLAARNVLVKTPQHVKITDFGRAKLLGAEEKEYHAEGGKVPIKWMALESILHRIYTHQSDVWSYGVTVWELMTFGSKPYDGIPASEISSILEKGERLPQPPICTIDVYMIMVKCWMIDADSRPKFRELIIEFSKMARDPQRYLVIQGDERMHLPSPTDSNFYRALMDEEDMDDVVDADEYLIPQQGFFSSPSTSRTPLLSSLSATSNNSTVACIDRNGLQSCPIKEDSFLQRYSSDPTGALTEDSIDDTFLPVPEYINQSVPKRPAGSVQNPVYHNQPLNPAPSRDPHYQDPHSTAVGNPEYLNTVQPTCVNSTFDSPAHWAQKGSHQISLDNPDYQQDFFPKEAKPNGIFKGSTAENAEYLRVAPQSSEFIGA
T1 sequence (P00533 with tags, fused parts or gaps DEL746-750/T790M, form open): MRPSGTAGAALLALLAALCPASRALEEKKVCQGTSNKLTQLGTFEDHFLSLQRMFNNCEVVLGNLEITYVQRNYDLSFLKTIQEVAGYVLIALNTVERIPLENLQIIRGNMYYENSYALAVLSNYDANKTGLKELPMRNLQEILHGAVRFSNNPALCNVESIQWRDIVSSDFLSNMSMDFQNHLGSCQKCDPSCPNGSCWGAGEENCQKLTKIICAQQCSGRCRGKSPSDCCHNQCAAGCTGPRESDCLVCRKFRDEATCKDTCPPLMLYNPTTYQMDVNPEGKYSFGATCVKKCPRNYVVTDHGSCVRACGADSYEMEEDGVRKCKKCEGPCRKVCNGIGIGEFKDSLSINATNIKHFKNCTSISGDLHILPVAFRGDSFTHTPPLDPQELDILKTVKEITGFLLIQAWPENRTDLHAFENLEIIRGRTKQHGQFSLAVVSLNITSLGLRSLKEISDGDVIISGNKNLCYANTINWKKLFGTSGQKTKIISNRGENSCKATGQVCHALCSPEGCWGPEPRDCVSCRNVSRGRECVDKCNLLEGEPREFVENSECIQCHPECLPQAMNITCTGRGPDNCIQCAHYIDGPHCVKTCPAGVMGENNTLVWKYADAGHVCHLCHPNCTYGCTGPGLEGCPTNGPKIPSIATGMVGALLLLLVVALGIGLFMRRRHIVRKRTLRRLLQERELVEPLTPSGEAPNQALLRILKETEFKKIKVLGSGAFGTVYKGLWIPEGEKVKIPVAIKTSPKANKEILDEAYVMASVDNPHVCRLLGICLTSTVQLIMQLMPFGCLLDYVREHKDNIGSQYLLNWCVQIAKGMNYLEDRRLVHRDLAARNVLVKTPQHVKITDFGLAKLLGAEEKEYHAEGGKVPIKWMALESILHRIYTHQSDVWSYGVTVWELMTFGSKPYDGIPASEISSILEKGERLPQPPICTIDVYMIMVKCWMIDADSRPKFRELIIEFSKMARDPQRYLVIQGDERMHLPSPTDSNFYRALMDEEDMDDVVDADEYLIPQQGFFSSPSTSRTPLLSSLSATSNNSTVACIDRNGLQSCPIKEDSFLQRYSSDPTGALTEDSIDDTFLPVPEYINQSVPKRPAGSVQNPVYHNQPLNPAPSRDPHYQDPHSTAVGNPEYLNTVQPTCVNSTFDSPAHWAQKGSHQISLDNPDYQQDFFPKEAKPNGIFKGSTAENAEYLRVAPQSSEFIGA
Chain of human EGFR (native sequence) (P00533 25-1210): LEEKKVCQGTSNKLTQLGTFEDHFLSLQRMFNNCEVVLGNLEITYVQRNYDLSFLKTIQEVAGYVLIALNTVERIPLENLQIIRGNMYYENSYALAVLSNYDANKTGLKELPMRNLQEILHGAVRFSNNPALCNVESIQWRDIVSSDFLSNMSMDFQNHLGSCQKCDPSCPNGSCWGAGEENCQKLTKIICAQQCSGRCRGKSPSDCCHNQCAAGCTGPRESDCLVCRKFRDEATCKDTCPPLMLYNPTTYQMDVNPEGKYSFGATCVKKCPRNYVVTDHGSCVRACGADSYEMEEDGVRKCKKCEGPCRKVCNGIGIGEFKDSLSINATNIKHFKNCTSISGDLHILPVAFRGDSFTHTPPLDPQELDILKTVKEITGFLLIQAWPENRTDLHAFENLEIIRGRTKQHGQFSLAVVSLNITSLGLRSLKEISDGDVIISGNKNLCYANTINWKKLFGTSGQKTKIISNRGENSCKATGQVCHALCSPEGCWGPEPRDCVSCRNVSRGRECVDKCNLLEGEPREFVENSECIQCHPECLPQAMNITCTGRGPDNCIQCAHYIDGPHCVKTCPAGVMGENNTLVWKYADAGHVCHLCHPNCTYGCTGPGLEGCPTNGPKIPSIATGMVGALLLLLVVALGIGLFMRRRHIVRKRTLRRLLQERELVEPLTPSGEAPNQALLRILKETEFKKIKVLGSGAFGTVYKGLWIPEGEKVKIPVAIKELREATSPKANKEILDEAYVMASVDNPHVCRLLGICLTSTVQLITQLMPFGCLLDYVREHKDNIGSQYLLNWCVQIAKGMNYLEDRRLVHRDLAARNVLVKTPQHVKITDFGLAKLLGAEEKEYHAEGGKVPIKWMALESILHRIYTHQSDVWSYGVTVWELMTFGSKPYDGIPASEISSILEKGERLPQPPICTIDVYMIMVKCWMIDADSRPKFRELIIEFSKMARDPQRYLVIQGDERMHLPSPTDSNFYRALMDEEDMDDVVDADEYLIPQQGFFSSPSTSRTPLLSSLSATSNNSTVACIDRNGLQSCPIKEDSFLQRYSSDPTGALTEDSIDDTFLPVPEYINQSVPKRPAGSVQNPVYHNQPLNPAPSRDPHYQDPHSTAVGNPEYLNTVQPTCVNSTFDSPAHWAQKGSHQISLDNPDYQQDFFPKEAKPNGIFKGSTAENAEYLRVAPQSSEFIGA
Chain of EGFR L858R/T790M (P00533 25-1210 T790M/L858R): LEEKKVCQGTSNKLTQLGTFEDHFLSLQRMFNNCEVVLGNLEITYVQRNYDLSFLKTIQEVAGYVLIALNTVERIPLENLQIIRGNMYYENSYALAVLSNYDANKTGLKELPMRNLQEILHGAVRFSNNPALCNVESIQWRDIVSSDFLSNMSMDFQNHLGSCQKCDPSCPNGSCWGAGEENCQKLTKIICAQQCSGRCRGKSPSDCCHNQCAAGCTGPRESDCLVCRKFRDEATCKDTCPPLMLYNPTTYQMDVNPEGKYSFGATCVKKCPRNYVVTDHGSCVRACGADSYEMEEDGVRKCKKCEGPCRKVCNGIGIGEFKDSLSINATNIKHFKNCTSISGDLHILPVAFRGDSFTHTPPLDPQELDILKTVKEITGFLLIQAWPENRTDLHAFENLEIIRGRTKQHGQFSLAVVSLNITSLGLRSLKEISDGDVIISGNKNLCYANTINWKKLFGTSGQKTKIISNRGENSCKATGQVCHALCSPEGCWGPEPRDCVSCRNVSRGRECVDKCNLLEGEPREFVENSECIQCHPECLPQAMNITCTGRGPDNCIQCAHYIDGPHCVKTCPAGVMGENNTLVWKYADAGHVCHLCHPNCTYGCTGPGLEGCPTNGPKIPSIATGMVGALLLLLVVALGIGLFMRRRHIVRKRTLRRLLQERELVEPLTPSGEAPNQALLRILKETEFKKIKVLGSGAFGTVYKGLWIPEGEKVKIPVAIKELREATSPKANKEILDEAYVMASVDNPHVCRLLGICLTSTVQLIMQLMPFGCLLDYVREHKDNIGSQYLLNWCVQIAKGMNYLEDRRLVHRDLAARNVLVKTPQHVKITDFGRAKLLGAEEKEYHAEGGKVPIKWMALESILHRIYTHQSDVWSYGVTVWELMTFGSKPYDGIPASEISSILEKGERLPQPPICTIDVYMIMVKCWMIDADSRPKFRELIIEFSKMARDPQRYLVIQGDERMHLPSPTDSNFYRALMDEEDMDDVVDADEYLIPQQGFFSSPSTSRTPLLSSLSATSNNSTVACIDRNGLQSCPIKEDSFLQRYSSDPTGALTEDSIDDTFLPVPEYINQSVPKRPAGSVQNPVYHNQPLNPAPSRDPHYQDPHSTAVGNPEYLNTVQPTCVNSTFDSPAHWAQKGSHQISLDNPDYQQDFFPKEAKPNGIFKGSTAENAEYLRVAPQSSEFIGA

With `CC#CC(=O)Nc1cc(Nc2ncc(Cl)c(Nc3ccccc3P(C)(C)=O)n2)c(OC)cc1N1CCC(N(C)C)C1` (stereo not drawn) [Example 112, N-(5-((5-chloro-4-((2-(dimethylphosphoryl)phenyl)amino)pyrimidin-2-yl)amino)-2-(3-(dimethylamino)pyrrolidin-1-yl)-4-methoxyphenyl)but-2-ynamide], the half-maximal inhibitory concentration (IC50) (as a rule, the concentration at which inhibition is half-maximal) in assay [1] (setting [5]) is below 50 nM; in assay [2] (BAF3 parental cells) it was at least 250 nM; at EGFR L858R (setting [5]), below 50 nM; on EGFR L858R/T790M (setting [5]), below 50 nM. The GI50 in assay [3] was below 50 nM; in assay [4] it was 50 to 100 nM.

In the case of `C=CC(=O)Nc1ccc(OC)c(Nc2ncc(OC)c(Nc3ccccc3P(C)(C)=O)n2)c1` [Example 131, N-(3-((4-((2-(dimethylphosphoryl)phenyl)amino)-5-methoxypyrimidin-2-yl)amino)-4-methoxyphenyl)acrylamide], the IC50 in assay [1] (setting [5]) was 50 to 100 nM; in assay [2] (BAF3 parental cells), at least 250 nM; on EGFR L858R (setting [5]), below 50 nM; on EGFR L858R/T790M (setting [5]) it was below 50 nM. Besides, the GI50 is below 50 nM in assay [3] and 50 to 100 nM in assay [4].

Regarding `COc1ccc(NC(=O)/C=C\C(=O)O)cc1Nc1ncc(Cl)c(Nc2ccccc2P(C)(C)=O)n1` [Example 61, (Z)-4-((3-((5-chloro-4-((2-(dimethylphosphoryl)phenyl)amino)pyrimidin-2-yl)amino)-4-methoxyphenyl)amino)-4-oxobut-2-enoic acid], the IC50 in assay [1] (human EGFR native sequence) is at least 250 nM; in assay [2] (BAF3 PARENTAL cells (control)) it was at least 250 nM; at EGFR L858R (EGFR L858R), at least 250 nM; on EGFR L858R/T790M (setting [6]), 101 to 250 nM. Further, the GI50 in assay [3] and in assay [4] was at least 250 nM each time.

`C=CC(=O)Nc1cc(Nc2ncc(Cl)c(Nc3ccccc3P(C)(C)=O)n2)c(OC)cc1N1CCC(N2CCOCC2)C1` (stereo not drawn) [Example 28, N-(5-((5-chloro-4-((2-(dimethylphosphoryl)phenyl)amino)pyrimidin-2-yl)amino)-4-methoxy-2-(3-morpholinopyrrolidin-1-yl)phenyl)acrylamide]: the IC50 in assay [1] (human EGFR native sequence) is below 50 nM; in assay [2] (BAF3 PARENTAL cells (control)), at least 250 nM; on EGFR L858R (EGFR L858R), below 50 nM; on EGFR L858R/T790M (setting [6]) it was below 50 nM. For the same molecule, the GI50 in assay [3] and in assay [4] was below 50 nM throughout.

As to `C=C(CN1CCS(=O)(=O)CC1)C(=O)Nc1ccc(OC)c(Nc2ncc(Cl)c(Nc3ccccc3P(C)(C)=O)n2)c1` [Example 46, N-(3-((5-chloro-4-((2-(dimethylphosphoryl)phenyl)amino)pyrimidin-2-yl)amino)-4-methoxyphenyl)-2-((1,1-dioxidothiomorpholino)methyl)acrylamide], the IC50 in assay [1] (human EGFR native sequence) is at least 250 nM; in assay [2] (BAF3 PARENTAL cells (control)), at least 250 nM; on EGFR L858R (EGFR L858R), 50 to 100 nM; at EGFR L858R/T790M (setting [6]), below 50 nM. Moreover, the GI50 in assay [3] and in assay [4] was at least 250 nM in each case.

Regarding `COc1ccc(NC(=O)C#CC(C)(C)N2CCCC2)cc1Nc1ncc(Cl)c(Nc2ccccc2P(C)(C)=O)n1` [Example 91, N-(3-((5-chloro-4-((2-(dimethylphosphoryl)phenyl)amino)pyrimidin-2-yl)amino)-4-methoxyphenyl)-4-methyl-4-(pyrrolidin-1-yl)pent-2-ynamide], the half-maximal inhibitory concentration (IC50) in assay [1] (human EGFR native sequence) is below 50 nM; in assay [2] (BAF3 PARENTAL cells (control)) it was at least 250 nM; on EGFR L858R (EGFR L858R), below 50 nM; on EGFR L858R/T790M (setting [6]), below 50 nM. The GI50 in assay [3] and in assay [4] was below 50 nM throughout.

With `COc1cc(F)c(NC(=O)C#CCCN2CCCCC2)cc1Nc1ncc(Cl)c(Nc2ccccc2P(C)(C)=O)n1` [Example 88, N-(5-((5-chloro-4-((2-(dimethylphosphoryl)phenyl)amino)pyrimidin-2-yl)amino)-2-fluoro-4-methoxyphenyl)-5-(piperidin-1-yl)pent-2-ynamide], the IC50 in assay [1] (human EGFR native sequence) was below 50 nM; in assay [2] (BAF3 PARENTAL cells (control)), at least 250 nM; on EGFR L858R (EGFR L858R), below 50 nM; at EGFR L858R/T790M (setting [6]), below 50 nM. For the same molecule, the GI50 in assay [3] and in assay [4] was below 50 nM in each case.

Source of the values: patent US9834571B2, “Compounds for inhibiting cell proliferation in EGFR-driven cancers” (ARIAD Pharmaceuticals, Inc., priority 2012, dated 2017).
